In patent US7427599B2, “Biologically active peptide comprising Tyrosyl-seryl-valine(YSV)” (CMS Peptides Patent Holding Company Limited, priority 2003, dated 2008):
Marks after values point to notes of the source that are not given here. Peptide text beside a SMILES is read from it.

Tests used:
melanoma B16 = assay: Growth of C57BL/6 mice-transplanted melanoma B16; type: in vivo; conditions: for The Inhibition rate (%) / Tumor weight: 20 consecutive days; for Tumor weight: saline 2.64 ± 0.68
Description: B16 cells were maintained in RPMI-1640 medium with 10% FBS at 37° C., 5% CO2. Mouse B16 melanoma culture at log phase was adjusted to 2.5×10^6/ml with Hank's solution. 0.2 ml of this was subcutaneously injected to the right axilla of healthy C57 BL/6 mice to form the melanoma mice model. […] From the next day after the tumor implantation, the general conditions of the mice and the growth of the tumor were observed daily. On the next day after the last test substance administration, the tumors were extirpated and the weights of tumor were measured. […] The results were presented as arithmetic mean ±SD. Statistical analysis was performed using the ANOVA test of the SPSS software.

[1] = test system: Human cervical carcinoma Hela cells; assay: Inhibition of growth of human cervical carcinoma Hela cells in vitro (MTT); type: cell-based; conditions: for % inhibition / OD570 nm: 48 hours; for OD570 nm: MTT, negative control 0.24 ± 0.01
Description: Human cervical carcinoma Hela cells at logarithmic growth phase were detached by incubating for 2 to 3 minutes with PBS containing 0.05% trypsin and 0.02% EDTA. The cells were examined by inverted phase contrast microscopy. The supernatant was removed after cytoplasm pyknosis and dilatation of cell compartment were observed. A few milliliters of RPMI-1640 medium with 10% FBS were added to terminate the digestion. The cells were harvested by gently blowing with a pipette. The cells were collected by centrifugation at 150 g for 10 minutes, and washed twice by cold Hank's solution with re-suspension and centrifugation. The cell pellets were re-suspended in RPMI-1640 medium with 10% FBS and adjusted to density of 5×10^4/ml. The treated cells were placed onto a 96 wells cell culture plate, 100 μl/well. The cells were incubated for 24 hours at 37° C., 5% CO2 for re-activation and attachment.
The experiment included two testing groups with different concentrations of YSV in culture medium, and a negative control with culture medium only. The final concentrations of YSV were 10 μg/ml and 5 μg/ml. Each group contained five parallel wells. 100 μl/well testing solution was added to the treated cells. The cells were incubated for 48 hours at 37° C., 5% CO2.
The cells were pelleted by centrifugation at 150 g for 10 minutes. The supernatant was discarded and 100 μl/well MTT of 0.5 mg/ml in RPMI-1640 was added to the cell pellets and the cells were re-suspended by shaking for 2 minutes. Incubation was continued for 4 hours. The supernatant was discarded after centrifugation at 150 g for 10 minutes. After blotted dry by filter paper, 100 μl/well 40 mM HCl-2-propanol was added to the cell pellets and shaken for 3 minutes. OD570 nm of each well referenced at 630 nm was obtained by using ELISA reader.

[2] = test system: A549 human pulmonary carcinoma; assay: A549 human pulmonary carcinoma xenograft in nude mice; type: in vivo, BALB/c (nu/nu) athymic nude mice; conditions: for Tumor inhibition index (%) / Tumor volume (cm^3) / Tumor weight: 40 days
Description: Healthy BALB/c (nu/nu) athymic nude mice (SPF, 4-5 weeks old, weighting 18-22 g) were purchased from Shanghai Tumor Academe of China Medical Academy of Science. In the first experiment, female was used. In the second experiment, male was used.
Select A549 human pulmonary carcinoma xenografts of diameter longer than 1 cm with good growth on nude mice. Aseptically excise the tumor mass, cut into pieces of 2-4 mm^3 and submerged in RPMI1640. Pulmonary carcinoma nude mice model was prepared by transplanting the tumor mass hypodermally to the back of healthy nude mice near to the neck via an incision at the ventral thorax.
The nude mice bearing A549 xenografts were randomly divided into groups of: saline control (0.2 ml/day), YSV groups of different dosages, and Cy control (0.2 mg/kg/day). The test substances were dissolved in 0.2 ml saline and administered intraperitoneally to the mice starting from the day after the transplantation, once per day for 40 consecutive days.
The general condition of the mice was observed daily. The mice were weighed every 3-4 days and the volume of the tumor was measured:
V=(⅙)πXYZ, where X, Y, and Z were the diameters of the tumor on the 3 planes.
The day after the last injection, the tumors were excised, weighted, and the volume measured. The tumors were examined for signs of necrosis. Tumor inhibition index=(average tumor weight of saline group−average tumor weight of test group)/average tumor weight of saline group×100%)
Statistical analysis was performed with SPSS software using one-way ANOVA analysis.

human leukemia K562 = assay: Growth of nude mice-transplanted human leukemia K562; type: in vivo, nude mice (BALB/C (nu/nu))
Description: K-562 cells were maintained in RPMI-1640 medium with 10% FBS at 37° C., 5% CO2.
K562 cells at log phase were adjusted to 1.6×10^8/ml with RPMI-1640. 0.1 ml of this was subcutaneously injected to the right flank of the healthy nude mice to form the leukemia mice model.
The mice bearing human leukemia K562 cells were randomized into groups of: saline control (0.2 ml/day), and YSV (160 μg/kg/day). The test substance was dissolved in 0.2 ml saline and administration of the test substance by intraperitoneal injection was started on the next day after the K562 inoculation, once per day for 30 consecutive days.
The general conditions of the mice was examined daily and the tumor size was measured in every 3-4 days. Tumor volume (mm^3) V=(⅙)πXYZ where X, Y, and Z were the diameters of the tumor on the three planes.
On the next day after the last test substance administration, the tumors were excised, the weight of tumor was recorded and the tumor volume was measured. Tumor growth inhibition index (%)=(mean tumor weight of control group—mean tumor weight of treatment group)/mean tumor weight of control group×100)
All the data were shown as arithmetic mean ±SD. The data were analyzed using the ANOVA test of the SPSS software. P<0.05 was accepted as having statistical significance.

[3] = suitable dosage, p<0.05 vs saline

CC(C)[C@H](NC(=O)[C@H](CO)NC(=O)[C@@H](N)Cc1ccc(O)cc1)C(=O)O [YSV, L-Tyrosyl-L-seryl-L-valine] (H-Tyr-Ser-Val-OH)
The Inhibition rate (%) (melanoma B16; 320 μg/kg/day intraperitoneal): 39.6%
Tumor weight (melanoma B16; 320 μg/kg/day intraperitoneal): 1.60 ± 1.21 g
The Inhibition rate (%) (melanoma B16; 640 μg/kg/day intraperitoneal): 44.6%
Tumor weight (melanoma B16; 640 μg/kg/day intraperitoneal): 1.47 ± 0.92 g
inhibition of growth of B16 melanoma in C57BL/6 mice (conclusion) (melanoma B16; [3]): able to inhibit the growth of B16 melanoma in C57BL/6 mice
inhibition of growth of Hela cells in vitro (conclusion) ([1]; 5 μg/ml to 10 μg/ml, p<0.05): able to inhibit the growth of human cervical carcinoma Hela cells in vitro
% inhibition ([1]; 5 μg/ml): 18.4%
OD570 nm ([1]; 5 μg/ml): 0.22 ± 0.00
% inhibition ([1]; 10 μg/ml): 19.6%
OD570 nm ([1]; 10 μg/ml): 0.22 ± 0.01
Tumor inhibition index (%) ([2]; experiment 1, female nude mice, 160 μg/kg/day i.p.): 32.8%
Tumor volume (cm^3) ([2]; experiment 1, female nude mice, 160 μg/kg/day i.p., saline 1.87 ± 1.10): 0.92 ± 0.79* cm^3
Tumor weight ([2]; experiment 1, female nude mice, 160 μg/kg/day i.p., saline 2.49 ± 1.02): 1.67 ± 0.97 g
Tumor inhibition index (%) ([2]; experiment 1, female nude mice, 320 μg/kg/day i.p.): 32.2%
Tumor volume (cm^3) ([2]; experiment 1, female nude mice, 320 μg/kg/day i.p., saline 1.87 ± 1.10): 0.84 ± 0.45* cm^3
Tumor weight ([2]; experiment 1, female nude mice, 320 μg/kg/day i.p., saline 2.49 ± 1.02): 1.69 ± 0.70 g
Tumor inhibition index (%) ([2]; experiment 1, female nude mice, 640 μg/kg/day i.p.): 37.4%
Tumor volume (cm^3) ([2]; experiment 1, female nude mice, 640 μg/kg/day i.p., saline 1.87 ± 1.10): 1.17 ± 0.84 cm^3
Tumor weight ([2]; experiment 1, female nude mice, 640 μg/kg/day i.p., saline 2.49 ± 1.02): 1.56 ± 1.08 g
Tumor inhibition index (%) ([2]; experiment 2, male nude mice, 160 μg/kg/day i.p.): 50.8%
Tumor volume (cm^3) ([2]; experiment 2, male nude mice, 160 μg/kg/day i.p., saline 1.34 ± 0.69): 0.78 ± 0.41 cm^3
Tumor weight ([2]; experiment 2, male nude mice, 160 μg/kg/day i.p., saline 1.51 ± 0.79): 0.74 ± 0.31 g
inhibition of growth of A549 xenograft in nude mice (conclusion) ([2]; suitable dosages, p<0.05 vs saline): able to inhibit the growth of nude mice-transplanted A549 human pulmonary carcinoma xenograft
Inhibition index (%) (human leukemia K562; 160 μg/kg/day intraperitoneal, 30 consecutive days, from tumor weight vs saline): 37.9%
Tumor weight (human leukemia K562; 160 μg/kg/day intraperitoneal, 30 consecutive days, saline 4.75 ± 2.21): 2.95 ± 1.58 g
Tumor volume (cm3) (human leukemia K562; 160 μg/kg/day intraperitoneal, 30 consecutive days, saline 5.08 ± 2.15): 3.15 ± 1.74 cm3
inhibition of growth of nude mice-transplanted K562 (conclusion) (human leukemia K562; [3]): able to inhibit the growth of nude mice-transplanted significantly human leukemia K562
